Reference: paper PMC10763615, “Identification and engineering of potent cyclic peptides with selective or promiscuous binding through biochemical profiling and bioinformatic data analysis” (RSC Chemical Biology, 2023)
Read-outs that look alike come from different tables or passages of the source. Positions of bridges follow the written chain, without caps; N, C: chain ends. Residues, ends and D or L forms follow the SMILES beside them.

How the values were obtained:
Type in all cases: binding
FGF-R4 ECD = target: T1, FGF-R4 ECD (Homo sapiens, UniProt P22455); experiment: single concentration BLI of crude peptides
T1 construct: DNA constructs for the extracellular domain (ECD) of human FGF-; HPC4 (C); made in house; host or cells: HEK 293-6E
T1 sequence (P22455 22-369 limits assumed): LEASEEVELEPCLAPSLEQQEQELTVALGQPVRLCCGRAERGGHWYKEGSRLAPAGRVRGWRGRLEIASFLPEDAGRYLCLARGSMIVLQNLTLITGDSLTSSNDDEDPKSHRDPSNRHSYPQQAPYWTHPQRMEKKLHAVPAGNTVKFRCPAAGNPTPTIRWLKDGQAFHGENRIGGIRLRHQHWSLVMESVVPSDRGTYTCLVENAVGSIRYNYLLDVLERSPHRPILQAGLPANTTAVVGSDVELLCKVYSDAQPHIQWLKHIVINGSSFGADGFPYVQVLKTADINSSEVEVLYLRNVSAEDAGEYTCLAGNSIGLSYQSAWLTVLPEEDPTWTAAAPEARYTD
Procedure, shortened: (§1)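 Biotinylated FGF-R ECD on streptavidin biosensors was dipped into ~1 μM crude peptide in PBS pH7.4 with 0.05% Tween-20 and 0.01% BSA for association, then into buffer for dissociation, and followed by BLI. Fitted KD values were adjusted for peptide concentration measured by UPLC-CAD.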

FGF-R3C ECD = target: T2, FGF-R3C ECD (Homo sapiens, UniProt P22607); experiment: biochemical; set-up: DNA constructs for the extracellular domain (ECD) of human FGF-; HPC4 (C); made in house; host or cells: HEK 293-6E
T2 sequence (P22607 23-375 limits assumed): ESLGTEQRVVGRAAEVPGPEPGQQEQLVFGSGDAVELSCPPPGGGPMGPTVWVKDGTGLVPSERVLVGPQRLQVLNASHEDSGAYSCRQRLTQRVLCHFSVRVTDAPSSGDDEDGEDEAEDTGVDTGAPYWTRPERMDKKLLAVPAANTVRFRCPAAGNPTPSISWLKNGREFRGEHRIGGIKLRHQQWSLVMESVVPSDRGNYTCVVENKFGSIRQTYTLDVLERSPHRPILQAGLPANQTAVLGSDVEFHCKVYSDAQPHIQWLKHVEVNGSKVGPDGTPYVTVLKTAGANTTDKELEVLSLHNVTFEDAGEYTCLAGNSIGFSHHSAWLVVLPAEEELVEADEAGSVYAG
Procedure, shortened: as §1

FGF-R1C ECD = target: T3, FGF-R1C ECD (Homo sapiens, UniProt P11362); experiment: biochemical; set-up: DNA constructs for the extracellular domain (ECD) of human FGF-; HPC4 (C); made in house; host or cells: HEK 293-6E
T3 sequence (P11362 22-376 limits assumed): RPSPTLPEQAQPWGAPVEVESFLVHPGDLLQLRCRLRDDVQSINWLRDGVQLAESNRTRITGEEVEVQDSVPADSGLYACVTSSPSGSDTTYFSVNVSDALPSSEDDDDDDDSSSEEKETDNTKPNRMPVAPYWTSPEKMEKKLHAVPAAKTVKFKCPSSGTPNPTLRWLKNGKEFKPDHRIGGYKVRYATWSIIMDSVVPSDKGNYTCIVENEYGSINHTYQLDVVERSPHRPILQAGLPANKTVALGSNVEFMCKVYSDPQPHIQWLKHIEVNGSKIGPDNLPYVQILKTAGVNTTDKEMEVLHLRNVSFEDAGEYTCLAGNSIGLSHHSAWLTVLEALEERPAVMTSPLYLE
Procedure, shortened: as §1

[1] = crude NNK peptides, single concentration BLI (Table S3), read-out: KD (4)
[2] = crude T18 selection 1 (1:1:1) peptides, single concentration BLI (Table S4), read-out: KD (4)

SMILES	Kd (FGF-R4 ECD; [1])	Kd (FGF-R3C ECD)	Kd (FGF-R1C ECD)	Kd (FGF-R4 ECD; [2])	Kd (FGF-R4 ECD)
CC[C@H](C)[C@@H]1NC(=O)[C@H](Cc2ccccc2)NC(=O)[C@@H]2CCCN2C(=O)[C@H](CC(C)C)NC(=O)[C@H](Cc2ccccc2)NC(=O)[C@H](CC(C)C)NC(=O)[C@H](CC(=O)O)NC(=O)[C@H](Cc2ccccc2)NC(=O)[C@H]([C@@H](C)O)NC(=O)[C@@H](NC(=O)[C@@H](N)CCSC)CSSC[C@@H](C(=O)NCC(=O)N[C@@H](CO)C(=O)NCC(=O)N[C@@H](CO)C(=O)N[C@@H](CC(=O)O)C(=O)N[C@@H](Cc2ccc(O)cc2)C(=O)N[C@@H](CCCCN)C(=O)N[C@@H](CC(=O)O)C(=O)N[C@@H](CC(=O)O)C(=O)N[C@@H](CC(=O)O)C(=O)N[C@@H](CC(=O)O)C(=O)N[C@@H](CCCCN)C(N)=O)NC(=O)[C@H](Cc2ccccc2)NC1=O (H-MCTFDLFLPFIFCGSGSDYKDDDDK-NH2; disulfide 2-13)	> 10 µM	0.177 µM	> 10 µM	–	–
CC[C@H](C)[C@@H]1NC(=O)[C@H](CC(N)=O)NC(=O)[C@H](CCCCN)NC(=O)[C@H](Cc2ccc(O)cc2)NC(=O)[C@@H](NC(=O)[C@H](CCSC)NC(C)=O)CSSC[C@@H](C(=O)NCC(=O)N[C@@H](CO)C(=O)NCC(=O)N[C@@H](CO)C(=O)N[C@@H](CC(=O)O)C(=O)N[C@@H](Cc2ccc(O)cc2)C(=O)N[C@@H](CCCCN)C(=O)N[C@@H](CC(=O)O)C(=O)N[C@@H](CC(=O)O)C(=O)N[C@@H](CC(=O)O)C(=O)N[C@@H](CC(=O)O)C(=O)N[C@@H](CCCCN)C(N)=O)NC(=O)[C@H](Cc2ccccc2)NC(=O)[C@H](C(C)C)NC(=O)[C@H](CC(C)C)NC(=O)[C@H](C(C)C)NC(=O)CNC(=O)[C@H](CC(N)=O)NC(=O)[C@H](CC(=O)O)NC1=O (Ac-MCYKNIDNGVLVFCGSGSDYKDDDDK-NH2; disulfide 2-14)	–	> 10 µM	> 10 µM	0.014 µM	–
CC[C@H](C)[C@@H]1NC(=O)[C@H](CCCCN)NC(=O)[C@H](Cc2ccc(O)cc2)NC(=O)[C@H](Cc2ccc(O)cc2)NC(=O)[C@H]([C@@H](C)CC)NC(=O)[C@H](CC(C)C)NC(=O)[C@H](Cc2c[nH]cn2)NC(=O)[C@H](CCCNC(=N)N)NC(=O)[C@H](CCCCN)NC(=O)[C@@H](NC(=O)[C@H](CCSC)NC(C)=O)CSSC[C@@H](C(=O)NCC(=O)N[C@@H](CO)C(=O)NCC(=O)N[C@@H](CO)C(=O)N[C@@H](CC(=O)O)C(=O)N[C@@H](Cc2ccc(O)cc2)C(=O)N[C@@H](CCCCN)C(=O)N[C@@H](CC(=O)O)C(=O)N[C@@H](CC(=O)O)C(=O)N[C@@H](CC(=O)O)C(=O)N[C@@H](CC(=O)O)C(=O)N[C@@H](CCCCN)C(N)=O)NC(=O)[C@H](CCCNC(=N)N)NC(=O)[C@H](C)NC1=O (Ac-MCKRHLIYYKIARCGSGSDYKDDDDK-NH2; disulfide 2-14)	–	1.54 µM	> 10 µM	0.001 µM	–
CC[C@H](C)[C@@H]1NC(=O)[C@H](C)NC(=O)[C@H](Cc2ccc(O)cc2)NC(=O)[C@@H]2CCCN2C(=O)[C@@H](NC(=O)[C@H](CCSC)NC(C)=O)CSSC[C@@H](C(=O)NCC(=O)N[C@@H](CO)C(=O)NCC(=O)N[C@@H](CO)C(=O)N[C@@H](CCC(=O)O)C(=O)N[C@@H](CCC(=O)O)C(=O)NCC(=O)N[C@@H](CO)C(=O)NCC(=O)N[C@@H](CO)C(=O)N[C@@H](CC(=O)O)C(=O)N[C@@H](Cc2ccc(O)cc2)C(=O)N[C@@H](CCCCN)C(=O)N[C@@H](CC(=O)O)C(=O)N[C@@H](CC(=O)O)C(=O)N[C@@H](CC(=O)O)C(=O)N[C@@H](CC(=O)O)C(=O)N[C@@H](CCCCN)C(N)=O)NC(=O)[C@H]([C@@H](C)O)NC(=O)[C@H](CCCCN)NC(=O)[C@H](CCCNC(=N)N)NC(=O)[C@H](Cc2c[nH]c3ccccc23)NC(=O)[C@H](CCCCN)NC(=O)[C@H](Cc2ccc(O)cc2)NC(=O)[C@H](Cc2c[nH]c3ccccc23)NC(=O)[C@H](Cc2ccc(O)cc2)NC1=O (Ac-MCPYAIYWYKWRKTCGSGSEEGSGSDYKDDDDK-NH2; disulfide 2-15)	–	> 10 µM	> 10 µM	0.011 µM	–
CC[C@H](C)[C@@H]1NC(=O)[C@H](CC(C)C)NC(=O)[C@H](CCCCN)NC(=O)[C@H](CO)NC(=O)[C@H](Cc2c[nH]c3ccccc23)NC(=O)[C@@H](NC(=O)[C@H](CCSC)NC(C)=O)CSSC[C@@H](C(=O)NCC(=O)N[C@@H](CO)C(=O)NCC(=O)N[C@@H](CO)C(=O)N[C@@H](CC(=O)O)C(=O)N[C@@H](Cc2ccc(O)cc2)C(=O)N[C@@H](CCCCN)C(=O)N[C@@H](CC(=O)O)C(=O)N[C@@H](CC(=O)O)C(=O)N[C@@H](CC(=O)O)C(=O)N[C@@H](CC(=O)O)C(=O)N[C@@H](CCCCN)C(N)=O)NC(=O)[C@H](CCC(N)=O)NC(=O)[C@H](CO)NC(=O)[C@H](CC(C)C)NC(=O)[C@H](Cc2ccc(O)cc2)NC(=O)[C@H](Cc2ccc(O)cc2)NC(=O)[C@H](CCCCN)NC(=O)[C@H]([C@@H](C)CC)NC1=O (Ac-MCWSKLIIKYYLSQCGSGSDYKDDDDK-NH2; disulfide 2-15)	–	> 10 µM	> 10 µM	–	0.016 µM
CSCC[C@H](NC(C)=O)C(=O)N[C@H]1CSSC[C@@H](C(=O)NCC(=O)N[C@@H](CO)C(=O)NCC(=O)N[C@@H](CO)C(=O)N[C@@H](CC(=O)O)C(=O)N[C@@H](Cc2ccc(O)cc2)C(=O)N[C@@H](CCCCN)C(=O)N[C@@H](CC(=O)O)C(=O)N[C@@H](CC(=O)O)C(=O)N[C@@H](CC(=O)O)C(=O)N[C@@H](CC(=O)O)C(=O)N[C@@H](CCCCN)C(N)=O)NC(=O)[C@H](Cc2c[nH]cn2)NC(=O)[C@H](CC(C)C)NC(=O)[C@H](C(C)C)NC(=O)[C@H](CCC(N)=O)NC(=O)[C@H](Cc2c[nH]c3ccccc23)NC(=O)[C@H](Cc2ccc(O)cc2)NC(=O)[C@H](CCCNC(=N)N)NC(=O)[C@H](C(C)C)NC(=O)[C@H](Cc2ccc(O)cc2)NC(=O)[C@H](Cc2ccc(O)cc2)NC(=O)[C@H](C)NC(=O)[C@H](CC(=O)O)NC1=O (Ac-MCDAYYVRYWQVLHCGSGSDYKDDDDK-NH2; disulfide 2-15)	–	> 10 µM	> 10 µM	0.036 µM	–
CC[C@H](C)[C@@H]1NC(=O)[C@H](CO)NC(=O)[C@H](Cc2ccccc2)NC(=O)[C@H](Cc2c[nH]cn2)NC(=O)CNC(=O)[C@@H](NC(=O)[C@H](CCSC)NC(C)=O)CSSC[C@@H](C(=O)NCC(=O)N[C@@H](CO)C(=O)NCC(=O)N[C@@H](CO)C(=O)N[C@@H](CC(=O)O)C(=O)N[C@@H](Cc2ccc(O)cc2)C(=O)N[C@@H](CCCCN)C(=O)N[C@@H](CC(=O)O)C(=O)N[C@@H](CC(=O)O)C(=O)N[C@@H](CC(=O)O)C(=O)N[C@@H](CC(=O)O)C(=O)N[C@@H](CCCCN)C(N)=O)NC(=O)[C@H](Cc2c[nH]c3ccccc23)NC(=O)[C@H](CCCCN)NC(=O)[C@H](Cc2ccccc2)NC(=O)[C@H](Cc2c[nH]c3ccccc23)NC(=O)[C@H]([C@@H](C)O)NC1=O (Ac-MCGHFSITWFKWCGSGSDYKDDDDK-NH2; disulfide 2-13)	> 10 µM	> 10 µM	> 10 µM	–	–
CSCC[C@H](NC(C)=O)C(=O)N[C@H]1CSSC[C@@H](C(=O)NCC(=O)N[C@@H](CO)C(=O)NCC(=O)N[C@@H](CO)C(=O)N[C@@H](CC(=O)O)C(=O)N[C@@H](Cc2ccc(O)cc2)C(=O)N[C@@H](CCCCN)C(=O)N[C@@H](CC(=O)O)C(=O)N[C@@H](CC(=O)O)C(=O)N[C@@H](CC(=O)O)C(=O)N[C@@H](CC(=O)O)C(=O)N[C@@H](CCCCN)C(N)=O)NC(=O)[C@H](C(C)C)NC(=O)[C@H](CCCNC(=N)N)NC(=O)[C@H](CCSC)NC(=O)[C@H](C(C)C)NC(=O)[C@H](CCCCN)NC(=O)[C@H](Cc2ccc(O)cc2)NC(=O)[C@H](CC(C)C)NC(=O)[C@H](CC(C)C)NC(=O)[C@H](C(C)C)NC(=O)CNC1=O (Ac-MCGVLLYKVMRVCGSGSDYKDDDDK-NH2; disulfide 2-13)	0.124 µM	> 10 µM	> 10 µM	–	–
